Test results taken from patent US6458347B1, “Drug complex” (Asahi Kasei Kabushiki Kaisha, priority 1996, dated 2002).
Read-outs that look alike come from different tables or passages of the source.

Columns and labels:
[1] = serum, 37° C.; serum species and time not stated
Protocol: Each of compounds (24), (26), (28) and (30) (drug complexes) obtained in Example 8 was dissolved in physiological saline so that the concentration thereof in terms of dexamethasone was 80 μg/ml, to thereby obtain four solutions. 50 μl of each of the above-obtained four solutions was individually added to each of 250 μl of mouse serum and 250 μl of human serum, and the amounts of dexamethasone released from the respective compounds at 37° C. were determined as follows.
The recovery and quantitative analysis of dexamethasone in serum were conducted as follows: 250 μl of phosphate buffer (pH 7.4) was added to […] of each of the sera to which the above-mentioned solution was added, to thereby obtain a mixture. To the obtained mixture was added 3 ml of a solution of hydrocortisone acetate (as an internal standard for the below-mentioned HPLC analysis, the concentration of hydrocortisone acetate: 10 ng/ml) in a mixture of acetonitrile and methanol (acetonitrile/methanol=4/1) and subjected to centrifugation (3,000 rpm, 10 minutes, 4° C.). To 700 μl of the resultant supernatant was added 700 µl of distilled water, to thereby obtain a mixture. The obtained mixture was subjected to filtration with a membrane filter (pore size 0.2 μm), and the resultant filtrate was used as a sample for the quantitative analysis of dexamethasone by HPLC under the following conditions. […]
Column: Asahipak […] C18 (4.6×150 mm)
Column temperature: room temperature
The detected wavelength: 254 nm
Mobile phase: Linear gradient
0 min.: 20% aqueous acetonitrile (20% CH3CN/H2O)
20 min.: 50% aqueous acetonitrile (50% CH3CN/H2O)

[2] = Dissolution in physiological saline; type: physicochemical; settings: 1 mg in 10 ml of physiological saline
B16 melanoma cells [3] = settings: 50 mg/kg in terms of paclitaxel, intravenous, six days after administration; paclitaxel 50 mg/kg
Protocol: Further, a control solution was prepared by dissolving paclitaxel per se into a mixture of ethanol, Cremophore EL (manufactured and sold by Sigma, U.S.A.) and physiological saline. Thus, four types of solutions, namely, three different types of test sample solutions and one control solution were obtained.
Twenty-eight female C57BL/6 mice (six weeks old) were divided into four groups, each consisting of seven mice, and subsequently, B16 melanoma cells were intradermally transplanted to the groin of each of the mice (5×10^6 cells per mouse). After eight days from the transplantation, the above-mentioned four types of solutions were administered to the transplanted mice at the tails thereof intravenously so that the mice belonging to the same group received the administration of the same type of solution. […] With respect to the control solution, the dose of paclitaxel was 50 mg/kg.
(§1) Separately, a group consisting of thirteen mice, which were transplanted with B16 melanoma cells in the same manner as mentioned above, was provided. Each of the mice of such group received the administration of physiological saline, to thereby obtain a non-treated group of mice.
The tumor volume was determined as follows. The external major and minor diameters (a and b, respectively) (each in mm) of the tumor were measured, and the tumor volume (V) was obtained according to the following formula. [formula]

B16 melanoma cells [4] = settings: 50 mg/kg in terms of paclitaxel, intravenous, six days after administration; paclitaxel 50 mg/kg; remark: listed apart in the source
Protocol: (§2) Further, a control solution was prepared by dissolving paclitaxel per se into a mixture of ethanol, Cremophore EL (manufactured and sold by Sigma, U.S.A.) and physiological saline.
(§3) With respect to the control solution, the dose of paclitaxel was 50 mg/kg.
as §1
(§4) The tumor volume was determined as follows. […] [formula]

colon 26 tumor cells = settings: 50 mg/kg in terms of paclitaxel, intravenous, repeated every 4 days; paclitaxel 50 mg/kg
Protocol: as §2, §3
Each of the mice of such group received the administration of only physiological saline in the same manner as in the case of the administration of the test sample solution, to thereby obtain a non-treated group of mice.
Evaluation was made of the antitumor activity in terms of the change (with the lapse of time) of the average tumor volume (%).
as §4

## CCC(=O)N[C@H](C(=O)OCC(=O)[C@@]1(O)[C@H](C)C[C@H]2[C@@H]3CCC4=CC(=O)C=C[C@]4(C)[C@@]3(F)[C@@H](O)C[C@@]21C)[C@@H](C)CC [compound (24), 21-propanoylisoleucyl-dexamethasone]
[1]
  dexamethasone introduced into the compound that was released: ≤ 10%

## CCC(=O)NCC(=O)OCC(=O)[C@@]1(O)[C@H](C)C[C@H]2[C@@H]3CCC4=CC(=O)C=C[C@]4(C)[C@@]3(F)[C@@H](O)C[C@@]21C [compound (26), 21-propanoylglycyl-dexamethasone]
[1]
  dexamethasone introduced into the compound that was released: approximately 95%

## CCC(=O)N[C@@H](C)C(=O)OCC(=O)[C@@]1(O)[C@H](C)C[C@H]2[C@@H]3CCC4=CC(=O)C=C[C@]4(C)[C@@]3(F)[C@@H](O)C[C@@]21C [compound (28), 21-propanoylalanyl-dexamethasone]
[1]
  dexamethasone introduced into the compound that was released: approximately 70%

## CCC(=O)OCC(=O)[C@@]1(O)[C@H](C)C[C@H]2[C@@H]3CCC4=CC(=O)C=C[C@]4(C)[C@@]3(F)[C@@H](O)C[C@@]21C [compound (30), 21-propanoyl-dexamethasone]
[1]
  dexamethasone introduced into the compound that was released: ≥ 98%

## CC(=O)O[C@H]1C(=O)[C@@]2(C)[C@H]([C@H](OC(=O)c3ccccc3)[C@]3(O)C[C@H](OC(=O)[C@H](O)[C@@H](NC(=O)c4ccccc4)c4ccccc4)C(C)=C1C3(C)C)[C@]1(OC(C)=O)CO[C@@H]1C[C@@H]2O [paclitaxel]
[2]
  dissolution of paclitaxel per se: could not be dissolved completely

## carboxymethylated dextran-2′-Ala-paclitaxel [compound (7)]
B16 melanoma cells [3]
  antitumor activity (relative average tumor volume) as compared to paclitaxel per se: excellent

## carboxymethylated dextran-2′-Gly-Gly-Phe-Gly-paclitaxel [compound (33)]
B16 melanoma cells [4]
  antitumor activity (relative average tumor volume) as compared to paclitaxel per se: significantly excellent
Colon 26 tumor cells
  antitumor activity (change of average tumor volume with time) as compared to paclitaxel per se: significantly excellent

## carboxymethylated dextran-2′-Gly-paclitaxel [compound (3)]
B16 melanoma cells [3]
  antitumor activity (relative average tumor volume) as compared to paclitaxel per se: significantly excellent

## carboxymethylated dextran-2′-Ile-paclitaxel [compound (15)]
B16 melanoma cells [3]
  antitumor activity (relative average tumor volume) as compared to paclitaxel per se: relatively weak
